In PubChem BioAssay (NCI):
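All cell lines were grown in 96-well plates and treated with compound for 48 hours. The concentration for full growth arrest is given as TGI.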

Tests used:
Experiment in all cases: inhibition of tumour cell growth, NCI panel, 48 h
786-0 renal = system: 786-0 renal
A498 renal = system: A498 renal
A549 NSCLC = system: A549 NSCLC
ACHN renal = system: ACHN renal
BT-549 breast = system: BT-549 breast
CAKI-1 renal = system: CAKI-1 renal
CCRF-CEM leukemia = system: CCRF-CEM leukemia
COLO 205 colon = system: COLO 205 colon
DU-145 prostate = system: DU-145 prostate
EKVX NSCLC = system: EKVX NSCLC
HCC-2998 colon = system: HCC-2998 colon
HCT-116 colon = system: HCT-116 colon
HCT-15 colon = system: HCT-15 colon
HL-60(TB) leukemia = system: HL-60(TB) leukemia
HOP-62 NSCLC = system: HOP-62 NSCLC
HOP-92 NSCLC = system: HOP-92 NSCLC
HS 578T breast = system: HS 578T breast
HT29 colon = system: HT29 colon
IGROV1 ovarian = system: IGROV1 ovarian
K-562 leukemia = system: K-562 leukemia
KM12 colon = system: KM12 colon
LOX IMVI melanoma = system: LOX IMVI melanoma
M14 melanoma = system: M14 melanoma
MALME-3M melanoma = system: MALME-3M melanoma
MCF7 breast = system: MCF7 breast
MDA-MB-231 breast = system: MDA-MB-231 breast
MDA-MB-435 = system: MDA-MB-435
MDA-N = system: MDA-N
MOLT-4 leukemia = system: MOLT-4 leukemia
NCI-H226 lung = system: NCI-H226 lung
NCI-H23 lung = system: NCI-H23 lung
NCI-H460 lung = system: NCI-H460 lung
NCI-H522 lung = system: NCI-H522 lung
OVCAR-3 ovarian = system: OVCAR-3 ovarian
OVCAR-4 ovarian = system: OVCAR-4 ovarian
OVCAR-5 ovarian = system: OVCAR-5 ovarian
OVCAR-8 ovarian = system: OVCAR-8 ovarian
PC-3 prostate = system: PC-3 prostate
RPMI-8226 leukemia = system: RPMI-8226 leukemia
RXF 393 renal = system: RXF 393 renal
SF-268 CNS = system: SF-268 CNS
SF-295 CNS = system: SF-295 CNS
SF-539 CNS = system: SF-539 CNS
SK-MEL-2 melanoma = system: SK-MEL-2 melanoma
SK-MEL-28 melanoma = system: SK-MEL-28 melanoma
SK-MEL-5 melanoma = system: SK-MEL-5 melanoma
SK-OV-3 ovarian = system: SK-OV-3 ovarian
SN12C renal = system: SN12C renal
SNB-19 CNS = system: SNB-19 CNS
SNB-75 CNS = system: SNB-75 CNS
SR leukemia = system: SR leukemia
SW-620 colon = system: SW-620 colon
T-47D breast = system: T-47D breast
TK-10 renal = system: TK-10 renal
U251 CNS = system: U251 CNS
UACC-257 melanoma = system: UACC-257 melanoma
UACC-62 melanoma = system: UACC-62 melanoma

Measured: TGI

O=C1OC(c2ccccc2)=N/C1=C\c1ccc(Br)cc1
> 100 µM: all assays above
